Usually inhibition stands for how much of the control response was suppressed. For orientation: melting point means the temperature, or range, at which the solid turns liquid. What is called IC50 is the concentration that inhibits the measured activity by half.

Data set [1] has as its target T1, Rac1 activated by DH/PH domain of Guanine nucleotide Exchange Factor Tiam1 (Rac1/Tiam1) (Homo sapiens, UniProt P63000).
T1 construct: made in house; host or cells: E. coli BL21 Codon+RIL
Kind of data set: Nucleotide binding assay: BODIPY-GTP binding to Rac1 activated by Tiam1 DH/PH. As to conditions: for inhibition at 50 µM: read-out: Rac1 % inhibition of BODIPY-GTP binding. It counts as biochemical. As for the experimental part:
(§1) Fluorescence of GTP analog BODIPY-GTP increases when it binds to small G proteins. This property was used to assess ability of compounds to inhibit nucleotide binding to Rac1, Rac1b and Cdc42. 2 μM GST-Rac1 and 6 μg His6-Tiam1-DH/PH were diluted in a buffer containing 20 mM Tris, 50 mM NaCl, and 1 mM MgCl2. This mixture was loaded in a 96-well plate. Fluorescence recording were started (λEx: 485 nm; λEm: 538 nm) using a spectrofluorimeter (Fluoroskan; Thermolab Systems). Assay was initiated by the addition of 2 μM BODIPY-GTP with or without various doses of test compound. Fluorescence values were recorded, and data were processed as follows: background fluorescence (unbound BODIPY-GTP) was retrieved from fluorescence values.
(§2) This assay allows determining whether compounds can inhibit the binding of a fluorescent nucleotide to recombinant small G proteins of interest. The effect of various alkaloid compounds on binding of BODIPY-GTP to Rac1 activated by DH/PH domain of Guanine nucleotide Exchange Factor Tiam1 (Rac1/Tiam1), Rac1b and Cdc42 is described below.

Another data set concerns the target T2, Rac1b (Homo sapiens, UniProt P63000).
T2 construct: GST (N); made in house; host or cells: E. coli BL21 Codon+RIL
The data set can be described thus: Nucleotide binding assay: BODIPY-GTP binding to Rac1b. The following applies: for inhibition at 50 µM: read-out: Rac1b % inhibition of BODIPY-GTP binding; for IC50: dose-response study; for selectivity for Rac1b: versus Rac1 or Cdc42. It counts as biochemical. As to the method:
as §1, §2

The target of another data set is T3, Cdc42 (Homo sapiens, UniProt P60953).
T3 construct: GST (N); made in house; host or cells: E. coli BL21 Codon+RIL
T3 sequence (P60953 whole entry, species assumed): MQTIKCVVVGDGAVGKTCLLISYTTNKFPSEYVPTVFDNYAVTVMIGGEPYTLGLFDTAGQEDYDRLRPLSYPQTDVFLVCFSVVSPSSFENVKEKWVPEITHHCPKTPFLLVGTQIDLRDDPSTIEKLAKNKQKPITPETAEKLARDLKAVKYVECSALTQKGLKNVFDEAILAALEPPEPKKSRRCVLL
Kind of data set: Nucleotide binding assay: BODIPY-GTP binding to Cdc42. The following applies: for inhibition at 50 µM: read-out: Cdc42 % inhibition of BODIPY-GTP binding. It counts as biochemical. As for the experimental part:
as §1, §2

In another data set the test system is HCT116 cell line. Kind of data set: Soft agar assay (anchorage-independent colony formation). It counts as cell-based. As to conditions: HCT116, 7 days. The source says: Colony formation in soft agar is the most widely used assay to evaluate anchorage-independent growth potential and represents one of the best in vitro assays that correlates strongly with in vivo tumorigenic cell growth potential. Normal cells require adherence and spreading onto a solid substratum in order to remain viable and proliferate. In contrast, cancer cell line HCT116 (ATCC clone number CCL-247) lost this requirement and therefore can form proliferating colonies of cells when suspended in a semisolid agar medium. The assay was performed in 24-well plates, using duplicates wells for each compound concentration. Briefly, a 0.5% Bacto™ Agar (BD Biosciences) bottom layer (prepared in HCT116 complete growth medium supplemented or not with the tested compound) was poured first and allowed to harden (0.3 ml per well). HCT116 were trypsinized to generate a uniform single cell suspension. Five×10^3 cells per well were resuspended in 0.3% agar supplemented with complete growth medium, with or without several compound concentrations to form the top layer (0.3 ml per well). HCT116 were allowed to grow for 7 days in these conditions and then analysed for colonies formation. Analysis was performed from pictures taken under a microscope that are representative from 2 different fields of the well. For each field, 2 different focal plans were taken and were merged using ImageJ software. The number of colonies were scored and colonies' size were measured. IC50 were determined for the number and size of colonies using GraphPad Prism (GraphPad) software. Data are mean values of 2 to 3 independent experiments.

For another data set, the system named is NIH3T3 and PC-3 cells. As to conditions: cited from earlier work.
Another data set has as its target RhoA (Homo sapiens, UniProt P61586). As to conditions: cited from earlier work.
The target in data set [2] is T4, HEK293 cells overexpressing human Rac1b (Homo sapiens, UniProt P63000).
T4 construct: expressed in transfected cells; host or cells: HEK293
The data set can be described thus: Rac1b activation assay (G-LISA). It counts as cell-based. As for the experimental part: Rac1b activation assay: HEK293 cells overexpressing human Rac1b were plated in 100 mm diameter dishes and grown for 5 days in MEM medium supplemented with 10% FBS, L-Glutamine and antibiotics. Cells were then treated with 50 μM of compounds or the solvent for 5 minutes, and the GTP loading of Rac1b was measured using a Rac Activation Assay Kit (Cytoskeleton) according to manufacturer's recommendations. Briefly, this assay uses a 96-well plate coated with RBD domain of Rho-family effector proteins. […] The signal is then developed with OPD reagent.

A further data set deals with protein kinase C (PKC). As to conditions: cited from earlier work.
Where [3] appears, read: final concentration of 50 μM, Rac1/Tiam1.
Where [4] appears, read: Homo sapiens, HCT-116, 168 h, read-out: Soft agar assay IC50, Clone Number.
Setting [5] is: Homo sapiens, HCT-116, 168 h, read-out: Soft agar assay IC50, Clone Size.
Where [6] appears, read: HEK293, 50 μM, 5 minutes, GTP loading of Rac1b, read-out: G-LISA % inhibition @ 50 μM.

“Also recorded” adds a separate entry of the source. Counter-ions that a name gives are not always drawn. Like-named read-outs stand apart in the source and are kept apart here.

RhoA, sequence (P61586 whole entry, species assumed): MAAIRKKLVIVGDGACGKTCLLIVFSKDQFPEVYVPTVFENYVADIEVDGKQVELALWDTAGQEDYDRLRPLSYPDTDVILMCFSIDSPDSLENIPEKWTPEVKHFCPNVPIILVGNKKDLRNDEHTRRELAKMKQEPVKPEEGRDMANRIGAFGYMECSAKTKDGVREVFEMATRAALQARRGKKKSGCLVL

In the case of `Cl.Oc1cc2c(cc1O)CN(Cc1cccc(O)c1O)CC2` [Compound 19, 2-(2,3-Dihydroxybenzyl)-6,7-dihydroxy-1,2,3,4-tetrahydroisoquinolinium chloride], the melting point is 178.8 °C. In [1] (setting [3]), the inhibition at 50 µM worked out at 9 ± 2%. Besides, the inhibition at 50 µM on Rac1b (final concentration of 50 μM) came to 19 ± 3%. Besides, at Cdc42 (final concentration of 50 μM), the inhibition at 50 µM was 17 ± 3%.

For `CCN(CC)CCCC(C)Nc1nc(C)cc(Nc2ccc3nc(C)cc(N)c3c2)n1` (stereo not drawn) [NSC 23766, reference compound], the 50% inhibitory concentration (IC50) in the data set on HCT116 cell line (read-out: Soft agar assay IC50, Clone Number) was determined as 64.2 ± 4.8 µM; with HCT116 cell line (read-out: Soft agar assay IC50, Clone Size), 27.9 ± 5 µM. Further, in the data set with NIH3T3 and PC-3 cells, the “effective dose, Rac1-mediated cellular functions” value is 50 to 100 µM. The “effect on RhoA activation” value at RhoA is “no effect”.

Regarding `C[n+]1cc2c3c(ccc2c2ccc4cc5c(cc4c21)OCO5)OCO3.O.[Cl-]` [Compound 13, 13-methyl-[1,3]benzodioxolo[5,6-c]-1,3-dioxolo[4,5-i]phenanthridinium chloride hydrate, reference compound], the IC50 came to 57.8 ± 4.3 µM in [1] (dose-response study); 4.6 ± 0.4 µM at Rac1b; 32.1 ± 0.7 µM at Cdc42 (dose-response study); 1.9 ± 0.6 µM in the data set on HCT116 cell line (setting [4]); 1.5 ± 0.2 µM in the data set on HCT116 cell line (setting [5]). Also, the inhibition at 50 µM in [1] stood at 45 ± 4%; at Rac1b, 100%; on Cdc42, 63 ± 2%; in data set [2] (HEK293, read-out: G-LISA % inhibition @ 50 μM), 50 ± 3%. In addition, the “fold more active on Rac1b than on Rac1/Tiam1” value on Rac1b (from IC50s) is on record as 13 fold. Also, on Rac1b (from IC50s), the “times more active on Rac1b than on Cdc42” value turned out to be 6 times. In addition, the “selectivity for Rac1b” value at Rac1b is reported as “some significant selectivity for Rac1b”. The “activity against PKC” value in the data set on protein kinase C (PKC) is given as 217 μm.

Consider `COc1cc(-c2cc3cc(OC)c(OC)cc3c(C)n2)ccc1O` [Compound 47, 4-(6,7-Dimethoxy-1-methylisoquinolin-3-yl)-2-methoxyphenol hydrochloride], for which the inhibition at 50 µM in data set [1] (setting [3]) came to 15 ± 3%; at Rac1b (final concentration of 50 μM), 18 ± 1%; on Cdc42 (final concentration of 50 μM), 17 ± 1%; in data set [2] (setting [6]), 13 ± 8%.

Turning to `COc1cc2cc(-c3cccc(N)c3)nc(C)c2cc1OC` [Compound 28, 3-(6,7-Dimethoxy-1-methylisoquinolin-3-yl)aniline dihydrochloride], the inhibition at 50 µM was 13 ± 2% in [1] (setting [3]), 20 ± 2% on Rac1b (final concentration of 50 μM), 3 ± 5% at Cdc42 (final concentration of 50 μM) and 27 ± 4% in data set [2] (setting [6]).

With `COc1ccc2c(c[n+](C)c3c4cc5c(cc4ccc23)OCO5)c1OC.[Cl-]` [Compound 14, 1,2-dimethoxy-N-methyl[1,3]benzodioxolo[5,6-c]phenanthridinium chloride, reference compound], the “maximum inhibition on Rac1/Tiam1” value in data set [1] (dose-response study (1-2-5-10-25-50-75-100 μM)) is “around 25%”. The inhibition at 50 µM is 25 ± 6% in data set [1] (setting [3]), 100% on Rac1b (final concentration of 50 μM), 35 ± 10% at Cdc42 (final concentration of 50 μM) and 40 ± 10% in [2] (setting [6]). Moreover, the values for the IC50 at Rac1b, with HCT116 cell line (setting [4]) and with HCT116 cell line (setting [5]) were 6.7 ± 0.9 µM, 2.4 ± 0.2 µM and 2 ± 0.3 µM, respectively. Besides, at Rac1b, the “selectivity for Rac1b” value is “highly selective for Rac1b; also recorded: some significant selectivity for Rac1b”. For the same molecule, the “activity against PKC” value with protein kinase C (PKC) is 1 μm.

Values taken from US20100120810A1, “COMPOUNDS AND METHODS FOR MODULATING RHO GTPASES” (priority 2007, published 2010).
